Measurements from publication PMC12642047, “Marine-derived Acremonium strain prioritization using untargeted metabolomics approach for the identification of cytotoxic cyclic depsipeptides” (BMC Biotechnology, 2025).
pIC50: −log10 of the molar value. Read-outs that look alike come from different tables or passages of the source. *1 amine or outer side, *2 acyl side, *3 side chain or, on linkers, in order; H or OH if unused. Where a SMILES comes first, the peptide text is derived from it. [ ]: non-standard residue; d: D form. ξ: configuration not given here. Pentanoyl(2-O,4-OH,5-Cl) = O=C(O)C(O)CC(O)CCl; NMeI = CC[CH](C)[CH](NC)C(=O)O; X1 = CC1CCN([*:1])C1C(=O)[*:2]; ξLac(3-iPr) = CC(C)CC(O)C(=O)O; NMeA = CN[CH](C)C(=O)O; βAla = NCCC(=O)O

Assays:
[1] = test system: A2058 (human melanoma); assay: MTS cytotoxicity assay (CellTiter 96 AQueous One), compounds, 72 h; format: cell-based; conditions: A2058 cells
Method: (§1) Compounds 1 − 5 were tested for their cytotoxic effects against several cancer cell lines, including MOLM-13 (acute myeloid leukemia), MV-4-11 (biphenotypic B myelomonocytic leukemia), THP-1 (acute monocytic leukemia), A2058 (human melanoma), MCF7 (human breast adenocarcinoma), and non-cancerous MRC-5 (normal lung fibroblast) using an MTS based CellTiter 96® AQueous One Solution Assay. In short, the cells were cultured in appropriate media supplemented with 10% fetal bovine serum (FBS): MOLM-13, MV-4-11 cells in RPMI medium, THP-1 cells in RPMI medium with ultra-low endotoxin FBS, MCF7 and MRC-5 in MEM Eagle medium along with other amino acid supplements, and A2058 cells in DMEM medium. After harvesting, they were seeded into 96-well plates. The cells were then treated with the test compounds at various concentrations and incubated for 72 h. Following the incubation period, an MTS assay was conducted, and the absorbance of the solution was measured using a microplate reader spectrophotometer (Tecan spark plate reader) at a wavelength of 490 nm. The half-maximum inhibitory concentration (IC50) values were calculated using the drc_3.0–1 package in R (Supplementary page S60-S61). DMSO (10%) was used as the positive control, and cell culture media as the negative control. All samples were tested in triplicate.
(§2) The results were plotted in a dose-response curve as shown in Figure S97 and the half-maximum inhibitory concentration (IC50) values were calculated using R. A 4-parameter logistic (4PL) dose-response model was applied to analyse the relationship between the concentration and the observed response (absorbance at 490 nm). […] The model was fitted to the experimental data using the drm function from the drc_3.0-1 package in R and IC50 values were determined as the concentration (μM) corresponding to 50% cell survival.

[2] = test system: MCF7 (human breast adenocarcinoma); assay: as above; format: cell-based; conditions: MCF7 cells
Method: as §1, §2

[3] = test system: MOLM-13 (acute myeloid leukemia); assay: as above; format: cell-based; conditions: Homo sapiens, MOLM-13 cells
Method: as §1, §2

[4] = test system: MRC-5 (normal lung fibroblast); assay: as above; format: cell-based; conditions: Homo sapiens, MRC5, MRC-5 normal lung fibroblasts
Method: as §1, §2

[5] = test system: MV-4-11 (biphenotypic B myelomonocytic leukemia); assay: as above; format: cell-based; conditions: Homo sapiens, MV4-11, MV-4-11 cells
Method: as §1, §2

[6] = test system: THP-1 (acute monocytic leukemia); assay: as above; format: cell-based; conditions: Homo sapiens, THP-1 cells
Method: as §1, §2

[7] = test system: plants; conditions: cited from earlier work
[8] = test system: insects; parameters: method as in doi:10.1021/np9601216; conditions: cited from earlier work
[9] = test system: PDGF-BB/PDGFR-ββ signalling; parameters: method as in PMID 27322468; conditions: cited from earlier work
[10] = test system: erythropoietin gene expression; parameters: method as in PMID 9514014; conditions: cited from earlier work
[11] = test system: MCF7; parameters: method as in PMID 30572686; conditions: read-out: IC50 MCF7 (previously reported), cited from earlier work
[12] = test system: HL-60 (acute promyelocytic leukemia); parameters: method as in PMID 30572686; conditions: HL-60 cells; read-out: IC50 HL-60 (previously reported); cited from earlier work

SMILES	pIC50 [1]	pIC50 [2]	pIC50 [3]	pIC50 [4]	pIC50 [5]	pIC50 [6]	Phytotoxic activity [7]	Entomopathogenic activity [8]	Inhibition of PDGF-BB/PDGFR-ββ signalling [9]	Erythropoietin gene expression [10]	IC50 ([1]; value marked * expressed in nM)	IC50 ([2]; value marked * expressed in nM)	pIC50 ([11]; MCF7 cell line)	pIC50 ([11]; MCF7 cells)	pIC50 [12]
CCC(C)C1NC(=O)C2CCCN2C(=O)C(CC(C)C)OC(=O)CCNC(=O)C(C)N(C)C(=O)C(C(C)CC)N(C)C1=O (stereo not shown) [Compound 4, homodestruxin B] (cyclo([ξLac(3-iPr)]PI[NMeI][NMeA][βAla]); configuration not given here)	4.52	4.91	5.26	< 4.40	4.84	4.79	phytotoxic activity	–	–	–	–	–	–	–	–
C=CCC1OC(=O)CCNC(=O)C(C)N(C)C(=O)C(C(C)CC)N(C)C(=O)C(C(C)CC)NC(=O)C2C(C)CCN2C1=O (stereo not shown) [Compound 3, destruxin-A5]	5.18	5.28	5.52	4.82	5.14	5.06	–	entomopathogenic activity	selectively inhibit	–	–	–	–	–	–
CCC(C)C1NC(=O)C2C(C)CCN2C(=O)C(CC(C)C)OC(=O)CCNC(=O)C(C)N(C)C(=O)C(C(C)CC)N(C)C1=O (stereo not shown) [Compound 5, homodestcardin] (cyclo([X1]I[NMeI][NMeA][βAla][ξLac(3-iPr)]); configuration not given here)	5.59	5.68	5.44	5.25	4.90	4.80	–	–	–	–	–	–	–	–	–
CCC(C)C1NC(=O)C2CCCN2C(=O)C(CC(O)CCl)OC(=O)CCNC(=O)C(C)N(C)C(=O)C(C(C)CC)N(C)C1=O (stereo not shown) [Compound 1, destruxin-A4 chlorohydrin] (cyclo([Pentanoyl(2-O,4-OH,5-Cl)]PI[NMeI][NMeA][βAla]); configuration not given here)	5.96	6.10	6.40	5.66	6.15	5.66	–	–	–	induced erythropoietin gene expression	–	–	–	–	–
CCC(C)C1NC(=O)C2C(C)CCN2C(=O)C(CC(O)CCl)OC(=O)CCNC(=O)C(C)N(C)C(=O)C(C(C)CC)N(C)C1=O (stereo not shown) [Compound 2, trichomide D] (cyclo([X1]I[NMeI][NMeA][βAla][Pentanoyl(2-O,4-OH,5-Cl)]); configuration not given here)	–	–	6.30	5.92	6.10	5.68	–	–	–	–	40 nM	40 nM	7.10	7.10	6.97
